Laboratory results: US9133183B2, “Imidazolidinones and analogs exhibiting anti-cancer and anti-proliferative activities” (Deciphera Pharmaceuticals, LLC, priority 2013, dated 2015)

Biological target: unphosphorylated PDGFRβ kinase (uPDGFRβ, Seq. ID No. 3) (Homo sapiens (Human), UniProt P09619)
Assay: Unphosphorylated PDGFRβ kinase assay (coupled pyruvate kinase/lactate dehydrogenase)
Assay type: biochemical
Settings: enzymatic assay, ATP 500 μM
Summary of the method: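 Construct residues 557-1106, unphosphorylated, 15.7 nM, with poly E4Y 2.5 mg/mL and 500 μM ATP, Tris pH 7.5, 1% DMSO, 30 °C. ADP coupled to NADH oxidation via PK/LDH, A340 followed 4 h; rate from 1.5-2.5 h versus no-compound control, IC50 from percent-inhibition series.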

Chain of unphosphorylated PDGFRβ kinase (uPDGFRβ, Seq. ID No. 3) (P09619 557-1106): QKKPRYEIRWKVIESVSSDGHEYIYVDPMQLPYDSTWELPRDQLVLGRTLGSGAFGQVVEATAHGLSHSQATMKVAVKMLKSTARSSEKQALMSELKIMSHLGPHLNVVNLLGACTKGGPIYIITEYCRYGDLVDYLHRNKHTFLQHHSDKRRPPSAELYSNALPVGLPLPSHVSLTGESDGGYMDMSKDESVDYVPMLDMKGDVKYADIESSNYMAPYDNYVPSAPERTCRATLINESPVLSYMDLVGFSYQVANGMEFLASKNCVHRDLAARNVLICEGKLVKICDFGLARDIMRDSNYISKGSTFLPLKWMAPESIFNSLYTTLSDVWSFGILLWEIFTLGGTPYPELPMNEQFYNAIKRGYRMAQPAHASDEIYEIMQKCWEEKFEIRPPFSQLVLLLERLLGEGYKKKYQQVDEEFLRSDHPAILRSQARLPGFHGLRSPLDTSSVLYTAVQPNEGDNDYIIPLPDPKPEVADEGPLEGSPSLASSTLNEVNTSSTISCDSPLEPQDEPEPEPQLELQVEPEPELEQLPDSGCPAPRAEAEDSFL

SMILES | IC50 [nM]
Cn1cc(-c2cc(Oc3ccc(NC(=O)N4CCN(CCOC(F)(F)F)C4=O)nc3)ccn2)cn1 [Example 21, N-(5-((2-(1-methyl-1H-pyrazol-4-yl)pyridin-4-yl)oxy)pyridin-2-yl)-2-oxo-3-(2-(trifluoromethoxy)ethyl)imidazolidine-1-carboxamide] | > 1000
COC[C@H](C)N1CCN(C(=O)Nc2ccc(Oc3ccnc(-c4cnn(C)c4)c3)cn2)C1=O [Example 16, (S)-3-(1-methoxypropan-2-yl)-N-(5-((2-(1-methyl-11H-pyrazol-4-yl)pyridin-4-yl)oxy)pyridin-2-yl)-2-oxoimidazolidine-1-carboxamide] | 100 to 1000
CC(C)N1CCN(C(=O)Nc2ccc(Oc3ccnc(-c4cnn(C)c4)c3)cn2)C1=O [Example 36, 3-isopropyl-N-(5-((2-(1-methyl-1H-pyrazol-4-yl)pyridin-4-yl)oxy)pyridin-2-yl)-2-oxoimidazolidine-1-carboxamide] | 100 to 1000
Cn1cc(-c2cc(Oc3ccc(NC(=O)N4CCN(C5CCC(F)(F)CC5)C4=O)nc3)ccn2)cn1 [Example 25, 3-(4,4-difluorocyclohexyl)-N-(5-((2-(1-methyl-1H-pyrazol-4-yl)pyridin-4-yl)oxy)pyridin-2-yl)-2-oxoimidazolidine-1-carboxamide] | 10 to 100
CN(C)C(=O)Nc1cc(Oc2ccc(NC(=O)N3CCN(C4CCOCC4)C3=O)nc2)ccn1 [Example 120, N-(5-((2-(3,3-dimethylureido)pyridin-4-yl)oxy)pyridin-2-yl)-2-oxo-3-(tetrahydro-2H-pyran-4-yl)imidazolidine-1-carboxamide] | 10 to 100
Cc1nc(NC(=O)N2CCN(CC(F)(F)F)C2=O)ccc1Oc1ccnc(-c2cnn(C)c2)c1 [Example 43, N-(6-methyl-5-((2-(1-methyl-1H-pyrazol-4-yl)pyridin-4-yl)oxy)pyridin-2-yl)-2-oxo-3-(2,2,2-trifluoroethyl)imidazolidine-1-carboxamide] | > 1000
Cn1cc(-c2cc(Oc3ccc(NC(=O)N4CCN(C(C)(C)C)C4=O)nc3)ccn2)cn1 [Example 34, 3-(tert-butyl)-N-(5-((2-(1-methyl-1H-pyrazol-4-yl)pyridin-4-yl)oxy)pyridin-2-yl)-2-oxoimidazolidine-1-carboxamide] | 10 to 100
Cc1nc(NC(=O)N2CCN(C3COC3)C2=O)ccc1Oc1ccnc(-c2cnn(C)c2)c1 [Example 20, N-(6-methyl-5-((2-(1-methyl-1H-pyrazol-4-yl)pyridin-4-yl)oxy)pyridin-2-yl)-3-(oxetan-3-yl)-2-oxoimidazolidine-1-carboxamide] | > 1000
CCn1cc(-c2cc(Oc3ccc(NC(=O)N4CCN(C5CCOCC5)C4=O)nc3)ccn2)cn1 [Example 4, N-(5-((2-(1-ethyl-1H-pyrazol-4-yl)pyridin-4-yl)oxy)pyridin-2-yl)-2-oxo-3-(tetrahydro-2H-pyran-4-yl)imidazolidine-1-carboxamide] | 100 to 1000
Cc1ccc(-c2cc(Oc3ccc(NC(=O)N4CCN(C5CCOCC5)C4=O)nc3)ccn2)cn1 [Example 52, N-(5-((6′-methyl-[2,3′-bipyridin]-4-yl)oxy)pyridin-2-yl)-2-oxo-3-(tetrahydro-2H-pyran-4-yl)imidazolidine-1-carboxamide] | 100 to 1000
CCc1nc(NC(=O)N2CCN(C3CC3)C2=O)ccc1Oc1ccnc(-c2cnn(C)c2)c1 [Example 58, 3-cyclopropyl-N-(6-ethyl-5-((2-(1-methyl-1H-pyrazol-4-yl)pyridin-4-yl)oxy)pyridin-2-yl)-2-oxoimidazolidine-1-carboxamide] | > 1000
CCc1nc(NC(=O)N2CCN(CC(F)(F)F)C2=O)ccc1Oc1ccnc(-c2cnn(C)c2)c1 [Example 56, N-(6-ethyl-5-((2-(1-methyl-1H-pyrazol-4-yl)pyridin-4-yl)oxy)pyridin-2-yl)-2-oxo-3-(2,2,2-trifluoroethyl)imidazolidine-1-carboxamide] | > 1000
COCCCN1CCN(C(=O)Nc2ccc(Oc3ccnc(-c4cnn(C)c4)c3)cn2)C1=O [Example 11, 3-(3-methoxypropyl)-N-(5-((2-(1-methyl-1H-pyrazol-4-yl)pyridin-4-yl)oxy)pyridin-2-yl)-2-oxoimidazolidine-1-carboxamide] | > 1000
CCN1CCN(C(=O)Nc2ccc(Oc3ccnc(-c4ccc(C5CCN(C)CC5)cc4)c3)c(C)n2)C1=O [Example 61, 3-ethyl-N-(6-methyl-5-((2-(4-(1-methylpiperidin-4-yl)phenyl)pyridin-4-yl)oxy)pyridin-2-yl)-2-oxoimidazolidine-1-carboxamide] | > 1000
COCCCN1CCN(C(=O)Nc2ccc(Oc3ccnc(-c4cnn(C)c4)c3)c(C)n2)C1=O [Example 19, 3-(3-methoxypropyl)-N-(6-methyl-5-((2-(1-methyl-1H-pyrazol-4-yl)pyridin-4-yl)oxy)pyridin-2-yl)-2-oxoimidazolidine-1-carboxamide] | > 1000
Cc1nc(NC(=O)N2CCN(C3CCCCC3)C2=O)ccc1Oc1ccnc(-c2cnn(C)c2)c1 [Example 22, 3-cyclohexyl-N-(6-methyl-5-((2-(1-methyl-1H-pyrazol-4-yl)pyridin-4-yl)oxy)pyridin-2-yl)-2-oxoimidazolidine-1-carboxamide] | > 1000
[2H]C([2H])([2H])n1cc(-c2cc(Oc3ccc(NC(=O)N4CCN(CCOC)C4=O)nc3C)ccn2)cn1 [Example 39, 3-(2-methoxyethyl)-N-(6-methyl-5-((2-(1-(trideuteromethyl)-1H-pyrazol-4-yl)pyridin-4-yl)oxy)pyridin-2-yl)-2-oxoimidazolidine-1-carboxamide] | > 1000
CCc1nc(NC(=O)N2CCN(C3CCCC3)C2=O)ccc1Oc1ccnc(-c2cnn(C)c2)c1 [Example 57, 3-cyclopentyl-N-(6-ethyl-5-((2-(1-methyl-1H-pyrazol-4-yl)pyridin-4-yl)oxy)pyridin-2-yl)-2-oxoimidazolidine-1-carboxamide] | > 1000
Cc1nc(NC(=O)N2CCN(C3CCOCC3)C2=O)ccc1Oc1ccnc(-c2cnn(C)c2)c1 [Example 3, N-(6-methyl-5-((2-(1-methyl-1H-pyrazol-4-yl)pyridin-4-yl)oxy)pyridin-2-yl)-2-oxo-3-(tetrahydro-2H-pyran-4-yl)imidazolidine-1-carboxamide] | > 1000
Cc1ccc(-c2cc(Oc3ccc(NC(=O)N4CCN(C5CCOCC5)C4=O)nc3C)ccn2)cn1 [Example 54, N-(6-methyl-5-((6′-methyl-[2,3′-bipyridin]-4-yl)oxy)pyridin-2-yl)-2-oxo-3-(tetrahydro-2H-pyran-4-yl)imidazolidine-1-carboxamide] | 100 to 1000
Cc1nc(NC(=O)N2CCN(C3CCC(F)(F)CC3)C2=O)ccc1Oc1ccnc(-c2cnn(C)c2)c1 [Example 26, 3-(4,4-difluorocyclohexyl)-N-(6-methyl-5-((2-(1-methyl-1H-pyrazol-4-yl)pyridin-4-yl)oxy)pyridin-2-yl)-2-oxoimidazolidine-1-carboxamide] | > 1000
Cc1nc(NC(=O)N2CCN(C(C)(C)C)C2=O)ccc1Oc1ccnc(-c2cnn(C)c2)c1 [Example 33, 3-(tert-butyl)-N-(6-methyl-5-((2-(1-methyl-1H-pyrazol-4-yl)pyridin-4-yl)oxy)pyridin-2-yl)-2-oxoimidazolidine-1-carboxamide] | 100 to 1000
